Columns and labels:
Format in all cases: functional
OVCAR-4 = assay: Anticancer activity against human OVCAR4 cells after 48 hrs by sulforhodamine B assay
NCI-H522 = assay: Anticancer activity against human NCI-H522 cells after 48 hrs by sulforhodamine B assay
BT-549 = assay: Anticancer activity against human BT549 cells after 48 hrs by sulforhodamine B assay
Malme-3M = assay: Anticancer activity against human MALME-3M cells assessed cell growth at 10 uM after 48 hrs by sulforhodamine B assay relative to control
LOX IMVI = assay: Anticancer activity against human LOXIMVI cells after 48 hrs by sulforhodamine B assay
ACHN = assay: Anticancer activity against human ACHN cells after 48 hrs by sulforhodamine B assay
HL-60(TB) = assay: Anticancer activity against human HL-60(TB) cells after 48 hrs by sulforhodamine B assay
SNB-75 = assay: Anticancer activity against human SNB75 cells assessed cell growth at 10 uM after 48 hrs by sulforhodamine B assay relative to control
HOP-92 = assay: Anticancer activity against human HOP92 cells after 48 hrs by sulforhodamine B assay
MDA-MB-231 = assay: Anticancer activity against human MDA-MB-231 cells assessed cell growth at 10 uM after 48 hrs by sulforhodamine B assay relative to control
UACC-62 = assay: Anticancer activity against human UACC62 cells assessed cell growth at 10 uM after 48 hrs by sulforhodamine B assay relative to control
MDA-MB-435 = assay: Anticancer activity against human MDA-MB-435 cells after 48 hrs by sulforhodamine B assay
A498 = assay: Anticancer activity against human A498 cells after 48 hrs by sulforhodamine B assay
MOLT-4 = assay: Anticancer activity against human MOLT4 cells assessed cell growth at 10 uM after 48 hrs by sulforhodamine B assay relative to control
UO-31 = assay: Anticancer activity against human UO31 cells after 48 hrs by sulforhodamine B assay
SK-MEL-28 = assay: Anticancer activity against human SK-MEL-28 cells after 48 hrs by sulforhodamine B assay
SK-MEL-5 [1] = assay: Anticancer activity against human SK-MEL-5 cells assessed cell growth at 10 uM after 48 hrs by sulforhodamine B assay relative to control
OVCAR-5 = assay: Anticancer activity against human OVCAR5 cells assessed cell growth at 10 uM after 48 hrs by sulforhodamine B assay relative to control
SW-620 = assay: Anticancer activity against human SW620 cells assessed cell growth at 10 uM after 48 hrs by sulforhodamine B assay relative to control
UACC-257 = assay: Anticancer activity against human UACC257 cells after 48 hrs by sulforhodamine B assay
HCT-15 = assay: Anticancer activity against human HCT15 cells after 48 hrs by sulforhodamine B assay
M14 = assay: Anticancer activity against human M14 cells after 48 hrs by sulforhodamine B assay
786-0 = assay: Anticancer activity against human 786-0 cells after 48 hrs by sulforhodamine B assay
HOP-62 = assay: Anticancer activity against human HOP62 cells after 48 hrs by sulforhodamine B assay
SNB-19 = assay: Anticancer activity against human SNB19 cells after 48 hrs by sulforhodamine B assay
DU-145 = assay: Anticancer activity against human DU145 cells after 48 hrs by sulforhodamine B assay
K562 = assay: Anticancer activity against human K562 cells after 48 hrs by sulforhodamine B assay
MCF7 = assay: Anticancer activity against human MCF7 cells assessed cell growth at 10 uM after 48 hrs by sulforhodamine B assay relative to control
RXF 393 [2] = assay: Anticancer activity against human RXF393 cells assessed cell growth at 10 uM after 48 hrs by sulforhodamine B assay relative to control
RXF 393 [3] = assay: Anticancer activity against human RXF393 cells after 48 hrs by sulforhodamine B assay
EKVX = assay: Anticancer activity against human EKVX cells after 48 hrs by sulforhodamine B assay
NCI-H322M [4] = assay: Anticancer activity against human NCI-H322M cells after 48 hrs by sulforhodamine B assay
NCI-H322M [5] = assay: Anticancer activity against human NCI-H322M cells assessed cell growth at 10 uM after 48 hrs by sulforhodamine B assay relative to control
[6] = Anticancer activity against human Hs 578T cells after 48 hrs by sulforhodamine B assay
SK-MEL-5 [7] = assay: Anticancer activity against human SK-MEL-5 cells after 48 hrs by sulforhodamine B assay
SF-539 = assay: Anticancer activity against human SF539 cells assessed cell growth at 10 uM after 48 hrs by sulforhodamine B assay relative to control
NCI-H23 = assay: Anticancer activity against human NCI-H23 cells assessed cell growth at 10 uM after 48 hrs by sulforhodamine B assay relative to control
SN12C = assay: Anticancer activity against human SN12C cells assessed cell growth at 10 uM after 48 hrs by sulforhodamine B assay relative to control
NCI/ADR-RES = assay: Anticancer activity against human NCI/ADR-RES cells after 48 hrs by sulforhodamine B assay
[8] = Anticancer activity against human […] cells after 48 hrs by sulforhodamine B assay
SK-OV-3 = assay: Anticancer activity against human SKOV3 cells after 48 hrs by sulforhodamine B assay
[9] = read-out: LC50 (the source's name)

SMILES: CCCCCCCCCCCC[n+]1ccn(C)c1.F[B-](F)(F)F
- GI50 (OVCAR-4): 2.59 µM
- GI50 (NCI-H522): 2.96 µM
- GI50 (BT-549): 2.38 µM
- CC50 (BT-549; [9]): 51.9 µM
- Activity (Malme-3M): 31.87%
- GI50 (LOX IMVI): 1.36 µM
- CC50 (LOX IMVI; [9]): 34.9 µM
- GI50 (ACHN): 10 µM
- GI50 (HL-60(TB)): 0.324 µM
- CC50 (HL-60(TB); [9]): 9.93 µM
- Activity (SNB-75): 3.39%
- GI50 (HOP-92): 7.84 µM
- Activity (MDA-MB-231): 26.48%
- Activity (UACC-62): 40.33%
- GI50 (MDA-MB-435): 2.15 µM
- CC50 (MDA-MB-435; [9]): 77.5 µM
- GI50 (A498): 7.53 µM
- Activity (MOLT-4): 71.98%
- GI50 (UO-31): 15.9 µM
- GI50 (SK-MEL-28): 10.1 µM
- Activity (SK-MEL-5 [1]): -19.73%
- Activity (OVCAR-5): 48.72%
- Activity (SW-620): 54.63%
- GI50 (UACC-257): 3.06 µM
- GI50 (HCT-15): 18.1 µM
- GI50 (M14): 4.15 µM
- GI50 (786-0): 5.77 µM
- GI50 (HOP-62): 9.48 µM
- GI50 (SNB-19): 10.9 µM
- GI50 (DU-145): 10.9 µM
- GI50 (K562): 0.363 µM
- Activity (MCF7): -1.79%
- Activity (RXF 393 [2]): 22.19%
- GI50 (RXF 393 [3]): 6.52 µM
- GI50 (EKVX): 0.792 µM
- GI50 (NCI-H322M [4]): 24.6 µM
- Activity (NCI-H322M [5]): 67.4%
- GI50 [6]: 6.11 µM
- GI50 (SK-MEL-5 [7]): 1.66 µM
- CC50 (SK-MEL-5 [7]; [9]): 54.5 µM
- Activity (SF-539): 35.07%
- Activity (NCI-H23): 23.04%
- Activity (SN12C): 21.24%
- GI50 (NCI/ADR-RES): 39.7 µM
- GI50 [8]: 0.312 µM
- CC50 [8, 9]: 9.48 µM
- GI50 (SK-OV-3): 5.97 µM
